Source: patent US7629318B2, “Immunosuppressant compounds, methods and uses related thereto” (priority 2002, dated 2009)
Square brackets hold non-standard residues; d marks the D form. Peptide text beside a SMILES is read from it. * marks the point of attachment. Tic = O=C(O)[C@@H]1Cc2ccccc2CN1; Cha = N[C@@H](CC1CCCCC1)C(=O)O; NHPhenethyl = c1ccc(CCN*)cc1; Nle = CCCC[C@H](N)C(=O)O

Assays:
[1] = system: T cell activation from 0404(DR14) chimeric MHCII-mice; test: In vivo inhibition of T cell activation by co-immunisation, DR14 mice immunised with OVA; set-up: species or system mouse; % Reduction of response to PPD(OVA): concentration or dose not given beside the values; settings: for % Reduction of response to OVA: DR14 mice co-immunised with OVA plus compound, mean % inhibition from the control over 3 concentrations of antigen (6.7, 20 and 60 ug); for % Reduction of response to PPD(OVA): specificity control: response to PPD in the same cell pool, OVA co-immunised mice
Source text: Mouse strains DR4 and DR14 carry chimeric MHC-II transgenes that encode the N-terminal domains of the respective DR molecules (forming the peptide binding site) and the remaining (2nd extracellular domains, transmembrane and intracytoplasmic domains) of the murine class II molecule I Ed. These strains are deficient of other murine class II, and thus, all helper T cell responses are triggered by peptides presented in the respective human MHC-II binding site. As an initial in vivo test of subject inhibitors designed to bind to DR, DR-transgenic mice were co-immunized with a pre-defined dose of protein antigen and different amounts of the compound antagonist to be tested. In this set-up, both antigen and compound were emulsified together in complete Freund's adjuvant (CFA), and thus, a direct competition between the two components for presentation by DR was tested. Readout of the assay is ex vivo antigen-specific activation of T cells from regional lymph nodes explanted 9 days after co-immunization. In a typical experiment, antigen dose-response was investigated, and the curves from mice immunized with antigen were compared to those from mice co-immunized with antigen+compound. The dose response curves were generated using lymph node cells pooled at equal numbers from 2-3 mice per experimental group. The experimental system also permits assessment of inherent antigenicity of the compound antagonist. This was done by setting up a dose-response study from the same cell pool using different concentrations of the compund under investigation instead of the antigen. As a specificity control, the response to Purified Protein Derivative (PPD), the major protein component of CFA, was tested in the same cell pool.
All Gpg conataining compounds have significant immunosupressive properties in one or both of the in-vivo models. Gpg-containing compounds also show improved activity or improved specificity over the Arg-containing equivilent. Further, compounds according to Formula I show activity in this assay.
Compounds of the invention were injected as an Emulsion prepared using CFA (Bacto Adjuvant Complete H37 Ra, Difco, Order-No. 3113-60); proteins 10 mg/ml in PBS, inhibitors 5 μM in 10% DMSO. CFA, PBS, antigen, and inhibitor were placed in the barrel of a 5-ml syringe (total volume not more than 1 mL). The mixture was sonicated at an amplitude less than 40% (30-35%) for two separated 15 s periods. The emulsion should seem to be hard and not liquid at this point. A drop of emulsion placed on the surface of water should not melt. The resulting emulsion was pushed through the needle into a 1 ml syringe with a needle (Gr.18, 26G×1″), and air bubbles were removed. Mice were co-immunized with 50 μg protein and 210 nM compound antagonist in final 100 μl emulsion into the tail base. Antigen+Compound and CFA are mixed 1:1 vol/vol. The best results are obtained using DR 4 mice immunised with HEL and DR 14 mice immunized with OVA.
Mice were injected at the tail-base as follows: Holding the tail of a mouse with thumb and middle finger, the index finger was placed under the base of the mouse's tail. The needle of the syringe was inserted about 1.5 cm from the tail base (hairy end) under the skin and pushed about 1 cm into the tail. 100 μl emulsion was injected into the mouse. After 9 days, mice were killed and lymph nodes removed.
The inhibitory effect of the candidate compounds on T-cell activation was tested using T-cells and antigen-presenting cells isolated from the lymph nodes of chimeric DR4-IE transgenic mice (Taconic, USA) previously co-immunized with hen egg lysozyme plus compound, or DR14-IE transgenic mice co-immunized with ovalbumin plus compound according to standard procedures (Adorini et al., 1988, Mueller et al., 1990; Current Protocols in Immunology, Vol. 2, 7.21; Ito et al., 1996). […]

[2] = Stability of compounds in mouse blood plasma; assay type: in vitro ADME
Protocol: (§1) The stability of the peptidomimetic compounds was determined in rat (Charles River Laboratories, Sulzfeld), mouse (Charles River Laboratories, Sulzfeld) and human (Bayerisches Rotes Kreuz, München) blood plasma (E. R. Garrett and M. R. Gardner, J Pharmaceutical Sciences 71 (1982) 14-25).
(§2) Compound stock solutions were diluted into blood plasma to give a final compound concentration of 5 μM and the mixtures were incubated at 37° C. At 0, 6 and 24 hours 1 ml samples were drawn and the plasma proteins were precipitated by the addition of 3 ml acetonitrile p.a. and whirlmixing. The precipitate was pelleted by centrifugation at 2000 g for 5 minutes. The supernatant was evaporated off to dryness and the residue was reconstituted in 400 μl 50% acetonitrile, 0.1% TFA in water.
(§3) PBS controls were prepared for unstable compounds accordingly.

[3] = Stability of compounds in rat blood plasma; assay type: in vitro ADME
Protocol: as §1, §2, §3

[4] = target: DR1 (DRA1*0101 DRB1*0101) (Homo sapiens, UniProt P01903+P01911, A100R/D57E/F55L/F60I/F76Y/I96L/L162R/M171V/P40L/Q125E/R42F/V115G/Y59C); test: Competitive binding to MHC-II protein DR1; settings: Protein binding IC50 (nM) 0101, 0101
Protocol: (§4) Interaction mixtures lacking the peptidomimetic compound and both peptide mimetic compound and MHC-II were used as positive and negative controls, respectively. All interaction mixtures were set up in duplicates and were incubated for 16 hours at room temperature.
(§5) After washing with PBS, 60 μl of the MHC-II-compound interaction mixtures were transferred from the interaction plate to the appropriate wells of the capture plate and incubated for 2 h at 4° C. The wells were washed six times with 200 μl/well of cooled (4 to 8° C.) 1×DELFIA wash (Wallac-ADL-GmbH, Freiburg), incubated with 100 μl of cooled Europium-streptavidin conjugate (Wallac-ADL-GmbH, Freiburg; diluted 1/1000 with DELFIA assay buffer) for 30 minutes at 4° C., again washed six times with cooled 1×DELFIA wash and, finally, incubated with 200 μl cooled DELFIA enhancement solution (Wallac-ADL-GmbH, Freiburg) for one hour at room temperature before reading the time-resolved europium fluorescence at λex Eu^3+: 340 nm and λem Eu^3+: 613 (615) nm (Wallac Victor^2 1420 Multilabel Counter, Wallac-ADL-GmbH, Freiburg).

[5] = target: Cathepsin B1 (EC 3.4.22.1 from bovine spleen) (Bos taurus, UniProt P07688); settings: Cathepsin B, 4 h
[6] = Stability of compounds in human blood plasma; assay type: in vitro ADME
Protocol: as §1, §2, §3

[7] = target: DR4Dw4 (DRA1*0101 DRB1*0401) (Homo sapiens, UniProt P01903+P01911, A100K/A169T/F76Y/I96L/K127E/L162R/M171V/N62H/P40V/Q125Y/R42H/S133A/S149N/S66Y/V115G/V209L/W38E); test: Competitive binding to MHC-II protein DR4Dw4
Protocol: as §4, §5

[8] = target: DR4Dw14 (DRA1*0101 DRB1*0404) (Homo sapiens, UniProt P01903+P01911, A100R/A169T/F76Y/I96L/K127E/L162R/M171V/N62H/P40V/Q125Y/R42H/S133A/S149N/S66Y/V209L/W38E); test: Competitive binding to MHC-II protein DR4Dw14; settings: 0404; read-out: Protein binding IC50 (nM) 0404
Protocol: as §4, §5

[9] = system: T-cell proliferation, lymph node cells of chimeric 0401-IE transgenic mice; settings: DR4-LN
Protocol: The compounds were tested as follows to inhibit the proliferative T cell response of antigen-primed lymph node cells from mice carrying a chimeric mouse-human class II transgene with an RA-associated peptide binding site, and lack murine class II molecules (Muller et al., 1990; Woods et al., 1994; Current Protocols in Immunology, Vol. 2, 7.21; Ito et al., 1996). Here, the immunization takes place in vivo, but the inhibition and readout are ex vivo. […] These mice lack murine MHC class II, and thus, all Th responses are channelled through a single human RA-associated MHC class II molecule (Ito et al. 1996). These transgenic mice represent a model for testing human class II antagonists.
1.5×10^5 cells are incubated in 0.2 ml wells of 96-well tissue culture plates in the presence of ovalbumin (30 μg per well—half-maximal stimulatory concentration) and a dilution series of the compound under test (from around 0.1 to 200 uM) in serum free HL-1 medium containing 2 mM L-glutamine and 0.1 g/l Kanamycin for three days. Antigen specific proliferation is measured by 3H-methyl-thymidine (1 μCi/well) incorporation during the last 16 h of culture (Falcioni et al., 1999). Cells are harvested, and 3H incorporation measured using a scintillation counter (TopCount, Wallac Finland).

Row | Compound | % Reduction of response to OVA [1] | % Reduction of response to PPD(OVA) [1] | Stability (Arbitrary units) Mouse 6 h [2] | Stability (Arbitrary units) Mouse 24 h [2] | Stability (Arbitrary units) Rat 6 h [3] | IC50 [4] | Stability (Arbitrary units) Cath B 4 h [5] | Stability (Arbitrary units) Human 6 h [6] | Stability (Arbitrary units) Human 24 h [6] | IC50 [7] | IC50 [8] | Immunsupressive assays DR4-LN (Max) % Inhibition ([9]; maximal inhibition) | IC50 ([9]; read-out: Immunsupressive assays DR4-LN (IC50))
1 | CCCC[C@H](NC(=O)[C@@H]1Cc2ccccc2CN1C(=O)[C@H](CCCNC(=N)N)NC(=O)[C@H](CC1CCCCC1)NC(C)=O)C(=O)NCCc1ccccc1 [Compound P82, Ac-Cha-Arg-Tic-Nle-N(H)CH2CH2Ph] (Ac-[Cha]R[Tic][Nle]-NHPhenethyl) | 25% | 5% | 79 Arbitrary units | 31 Arbitrary units | 65 Arbitrary units | 3100 nM | 105 Arbitrary units | 94 Arbitrary units | 72 Arbitrary units | 18 µM | 14000 nM | 100% | 27 µM
2 | Ac-Hfe-Gpg-Tic-Nle-βPhPro-[S(oxaz)L]-NMe2 [Compound P57] | 52.6% | 52.4% |  |  |  |  |  |  |  |  |  |  | 
